Results published in patent US20060270607A1, “Pharmaceutical combinations” (priority 1999, published 2006).

Assays:
[1] = system: platelet P-selectin expression; assay: ADP-induced platelet P-selectin expression in human washed platelets; assay type: cell-based; details: ADP 10 μM, GR144053 10 μM, compound B 10 nM, Mean ± se (n = 3), Control 13.1 ± 3.3
Protocol: P-selectin expression on the platelet membrane surface plays an important role in platelet-leukocyte-conjugate formation and there is increasing evidence that such interactions play an important role in both acute thrombosis and in the inflammatory aetiology of progressive atheroscerosis. The effect of a P2T-receptor antagonist (compound B) on ADP (10 μM)-induced platelet P-selectin expression was investigated in human washed platelets. The effect of compound B (10 nM) was compared with that of the GPIIb/IIIa antagonist, GR144053 (10 μM, Foster et al (1993) Thromb Haemostas; 69(6):559, synthesized in AstraZeneca R & D, Charnwood). These concentrations are 4 (compound B)—and 600 (GR144053)—fold higher than the respective IC50 values for inhibition of ADP-induced platelet aggregation in this system.

[2] = system: ADP-induced platelet aggregation; assay: ADP-induced platelet aggregation, whole blood impedance aggregometry; assay type: cell-based; details: human blood ex vivo; for Aggregation, ADP 10 μM, −compound A: n = 7-8
Protocol: Human Blood In Vitro—Compound A and Clopidogrel
Compound A (500 nM final concentration) was added to blood from healthy human volunteers receiving clopidogrel (Sanofi-Winthrop, 75 mg/day for 11 days). ADP-induced platelet aggregation (+/−compound A) was measured using whole blood impedance aggregometry.

**Q.** `Cl.Cl.Cl.N=C(N)c1ccc(N2CCN(C3CCN(CC(=O)O)CC3)CC2)cc1` [GR144053] was tested. Which “P-selectin expression (% positive cells)” value [1] did it give?
**A.** 17.7 ± 1.7 % positive cells

**Q.** What does the source list for `COC(=O)[C@H](c1ccccc1Cl)N1CCc2sccc2C1` [clopidogrel]?
**A.** Inhibition of the ADP response (in words) ([2]; clopidogrel alone, 75 mg/day for 11 days): slowly developing, incomplete inhibition; Aggregation, ADP 10 μM, −compound A ([2]; oral clopidogrel 75 mg/day for 1 day, mean ± SD): 13.8 ± 2.3 ohms; Aggregation, ADP 10 μM, −compound A ([2]; oral clopidogrel 75 mg/day for 2 days, mean ± SD): 11.8 ± 3.4 ohms; Aggregation, ADP 10 μM, −compound A ([2]; oral clopidogrel 75 mg/day for 3 days, mean ± SD): 10.2 ± 4.5 ohms; Aggregation, ADP 300 μM, −compound A ([2]; oral clopidogrel 75 mg/day for 3 days, n=1): 13.9^(n=1) ohms; Aggregation, ADP 10 μM, −compound A ([2]; oral clopidogrel 75 mg/day for 11 days, mean ± SD): 8.2 ± 4.4 ohms; Aggregation, ADP 300 μM, −compound A ([2]; oral clopidogrel 75 mg/day for 11 days, mean ± SD, n=3): 11.4 ± 5.2^(n=3) ohms
